Experimental data published in patent US9623048B2, “Human hepatocyte-like cells and uses thereof” (SHANGHAI INSTITUTES FOR BIOLOGICAL SCIENCES, CHINESE …, priority 2013, dated 2017).
Read-outs that look alike come from different tables or passages of the source.

Columns and labels:
[1] = system: CYP450 enzymes in hiHep cells; experiment: CYP induction assay in hiHep cells (q-PCR); settings: 48 hours inducer treatment
Procedure: Total RNA was extracted to measure the induction of CYP enzymes responding to chemical inducers by q-PCR. Total RNA of cells without inducer treatment were used to measure the expression of CYP450 genes and nuclear receptor genes.
Next, assays were carried out to analyze whether hiHep cells were responsive to CYP inducers.
Transcriptional activation of CYP450 enzymes and many other drug metabolism enzymes are mediated by nuclear receptors including AHR, CAR, and PXR.

hiHep cells [2] = experiment: Sandwich culture biliary excretion assay in hiHep cells; settings: sandwich cultured hiHep cells, 10 minutes incubation
Procedure: To prepare sandwich culture, 1×10^5 hiHep cells, primary human hepatocytes, and HFF were seeded in collagen I coated 24 well plate. 200 μL 1.5 mg/ml freshly prepared neutralized collagen gel solution were then poured on cells. After solidification, cells were cultured in Williams' E medium supplemented with 5% FBS, 10 μM TCA and 2 μM cAMP for a further 4 days.
To analyze the biliary excretion index, cells were washed once and then incubate in HBSS buffer or Calcium free HBSS buffer at 37° C. […] Cumulative uptake was stopped by washing with cold HBSS buffer for three times. […] The amount of CLF was quantified by measuring fluorescence at 492 nm and 536 nm with a Synergy 4 microplate reader (Biotek, Winooski, USA). Biliary Excretion Index (BEI) was calculated as: BEI=(AHBSS−AHBSS([…]))/AHBSS×100%.
Membrane transporter-mediated biliary excretion is another important function of hepatocytes for clearance of xenobiotics. Drug clearance through biliary excretion is a critically evaluated property in the selection of drug candidates.

hiHep cells [3] = experiment: CYP metabolism assay in hiHep cells (LC-MS/MS of metabolic products)
Procedure: (§1) For the measurement of CYP enzyme activities, cells were induced with different compounds for certain drug metabolisms. The supernatants were collected for measurement of metabolized compounds by LC-MS/MS (Agilent 1200 HPLC and ABI 4000 mass-spectrometer).
(§2) Freshly thawed primary human hepatocytes were directly used as a positive control. Cells were incubated with substrate in 200 μl incubation medium at different concentrations for 3 hours at 37° C. To stop the reaction, […] cold methanol was added and centrifuged. The supernatants were collected for measurement of metabolized compounds by LC-MS/MS (Agilent 1200 HPLC and ABI 4000 mass-spectrometer). Total cell protein amount was used to normalize the data. Substrates and metabolized products used for standard curves were commercially purchased.
Freshly thawed primary human hepatocytes were directly used as a positive control.

hiHep^LT cells = experiment: CYP metabolism assay in hiHep^LT cells; settings: passage 10
Procedure: as §1, §2

MSC-hiHep cells = experiment: CYP metabolism assay in AD-MSC-derived hiHep cells
Procedure: as §2

Compound: Cc1ccc2cc3c(ccc4ccccc43)c3c2c1CC3 [3-methylcholanthrene]
- induction of mRNA expression levels of CYP1A2, CYP2A6, CYP2B6, CYP2C8 and CYP2C9 [1]: markedly induced

Compound: CC(CCC(=O)NC(CCCCNC(=S)Nc1ccc(-c2c3ccc(=O)cc-3oc3cc(O)ccc23)c(C(=O)O)c1)C(=O)O)C1CCC2C3C(O)CC4CC(O)CCC4(C)C3CC(O)C12C (stereo not drawn) [CLF, cholyl-lysyl-fluorescein]
- biliary excretion indices (BEI) (hiHep cells [2]): remarkable

Compound: O=c1ccc2ccccc2o1 [coumarin]
- CYP enzyme-dependent metabolism (hiHep cells [3]): showed CYP enzyme-dependent metabolism

Compound: COc1ccc2c(c1)[C@]13CCCC[C@@H]1[C@H](C2)N(C)CC3 [dextromethorphan]
- CYP enzyme-dependent metabolism (hiHep cells [3]; hiHep cells after 48 hours CYP induction, 3 hours incubation): showed CYP enzyme-dependent metabolism
- products of metabolism (hiHep^LT cells): not detected
- products of metabolism (MSC-hiHep cells): not detected

Compound: CCC1(c2ccccc2)C(=O)NC(=O)NC1=O [phenobarbital]
- induction of CYP3A4 mRNA [1]: relatively low but significant level
- induction of mRNA expression levels of CYP1A2, CYP2A6, CYP2B6, CYP2C8 and CYP2C9 [1]: markedly induced

Compound: [D-Pen2,5]-enkephalin hydrate [DPDPE]
- biliary excretion indices (BEI) (hiHep cells [2]): remarkable
